What follows are molecules tested against T1, HMG-CoA reductase (Homo sapiens, UniProt P04035) (assay: HMG-CoA reductase (HMGCR) degradation in HepG2 cells by western blotting). Conditions: treated for 18 hours, ratio of HMG-CoA reductase to GAPDH.
T1 construct: endogenous in cells; host or cells: HepG2 (Korea Cell Line Bank)
T1 sequence (P04035 1-888): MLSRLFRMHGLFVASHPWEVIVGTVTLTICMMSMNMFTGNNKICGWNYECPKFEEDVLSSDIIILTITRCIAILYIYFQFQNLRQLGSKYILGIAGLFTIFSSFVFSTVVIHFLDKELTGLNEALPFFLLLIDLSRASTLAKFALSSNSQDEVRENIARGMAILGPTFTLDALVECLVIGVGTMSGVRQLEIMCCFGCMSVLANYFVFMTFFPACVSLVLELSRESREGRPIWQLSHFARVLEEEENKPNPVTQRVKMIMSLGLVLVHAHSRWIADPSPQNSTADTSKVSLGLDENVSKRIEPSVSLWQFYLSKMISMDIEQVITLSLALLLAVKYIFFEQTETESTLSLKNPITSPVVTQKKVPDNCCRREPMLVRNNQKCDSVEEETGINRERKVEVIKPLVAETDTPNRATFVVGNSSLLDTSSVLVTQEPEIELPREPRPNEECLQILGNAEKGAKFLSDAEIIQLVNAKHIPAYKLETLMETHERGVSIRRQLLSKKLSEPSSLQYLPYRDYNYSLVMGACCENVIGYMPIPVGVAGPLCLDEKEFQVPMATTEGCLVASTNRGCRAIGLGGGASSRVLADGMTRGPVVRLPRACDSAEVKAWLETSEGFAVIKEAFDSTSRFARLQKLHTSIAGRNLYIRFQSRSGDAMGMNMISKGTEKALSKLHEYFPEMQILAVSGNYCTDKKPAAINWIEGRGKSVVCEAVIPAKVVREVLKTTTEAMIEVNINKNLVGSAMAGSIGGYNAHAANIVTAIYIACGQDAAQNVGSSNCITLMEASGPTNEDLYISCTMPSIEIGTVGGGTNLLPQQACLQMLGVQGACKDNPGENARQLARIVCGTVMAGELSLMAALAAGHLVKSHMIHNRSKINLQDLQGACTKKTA
Assay type: cell-based
Summary of the method: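 HepG2 cells (passage P105–P110) treated 18 hours with compounds in 10-point three-fold dilutions from 3 μM. RIPA lysates (15 μg protein, BCA-quantified) run on SDS-PAGE and immunoblotted for HMGCR (1:500) with GAPDH (1:20000) as loading control, primary antibodies 16 hours at 4° C.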

SMILES | DC50 [nM]
Cc1ncsc1-c1ccc(CNC(=O)[C@@H]2C[C@@H](O)CN2C(=O)[C@@H](NC(=O)C2(F)CC2)C(C)(C)C)c(OCCOCCOCCNC(=O)O[C@H]2C[C@@H](C)C=C3C=C[C@H](C)[C@H](CC[C@@H]4C[C@@H](O[Si](C)(C)C(C)(C)C)CC(=O)O4)[C@H]32)c1 [Compound 28, (1S,3R,7S,8S,8aR)-8-(2-((2R,4R)-4-((tert-butyldimethylsilyl)oxy)-6-oxotetrahydro-2H-pyran-2-yl)ethyl)-3,7-dimethyl-1,2,3,7,8,8a-hexahydronaphthalen-1-yl (2-(2-(2-(2-(((2S,4R)-1-((S)-2-(1-fluorocyclopropane-1-carboxamido)-3,3-dimethylbutanoyl)-4-hydroxypyrrolidine-2-carboxamido)methyl)-5-(4-methylthiazol-5-yl)phenoxy)ethoxy)ethoxy)ethyl)carbamate] | < 50
Cc1ncsc1-c1ccc(CNC(=O)[C@@H]2C[C@@H](O)CN2C(=O)[C@@H](NC(=O)C2(F)CC2)C(C)(C)C)c(OCCOCCOCCOCCNC(=O)O[C@H]2C[C@@H](C)C=C3C=C[C@H](C)[C@H](CC[C@@H]4C[C@@H](O[Si](C)(C)C(C)(C)C)CC(=O)O4)[C@H]32)c1 [Compound 29, (1S,3R,7S,8S,8aR)-8-(2-((2R,4R)-4-((tert-butyldimethylsilyl)oxy)-6-oxotetrahydro-2H-pyran-2-yl)ethyl)-3,7-dimethyl-1,2,3,7,8,8a-hexahydronaphthalen-1-yl (2-(2-(2-(2-(2-(((2S,4R)-1-((S)-2-(1-fluorocyclopropane-1-carboxamido)-3,3-dimethylbutanoyl)-4-hydroxypyrrolidine-2-carboxamido)methyl)-5-(4-methylthiazol-5-yl)phenoxy)ethoxy)ethoxy)ethoxy)ethyl)carbamate] | 50 to 500
Cc1ncsc1-c1ccc(CNC(=O)[C@@H]2C[C@@H](O)CN2C(=O)[C@@H](NC(=O)C2(F)CC2)C(C)(C)C)c(OCCOCCOCCOCCOCCNC(=O)O[C@H]2C[C@@H](C)C=C3C=C[C@H](C)[C@H](CC[C@@H]4C[C@@H](O[Si](C)(C)C(C)(C)C)CC(=O)O4)[C@H]32)c1 [Compound 30, (1S,3R,7S,8S,8aR)-8-(2-((2R,4R)-4-((tert-butyldimethylsilyl)oxy)-6-oxotetrahydro-2H-pyran-2-yl)ethyl)-3,7-dimethyl-1,2,3,7,8,8a-hexahydronaphthalen-1-yl (14-(2-(((2S,4R)-1-((S)-2-(1-fluorocyclopropane-1-carboxamido)-3,3-dimethylbutanoyl)-4-hydroxypyrrolidine-2-carboxamido)methyl)-5-(4-methylthiazol-5-yl)phenoxy)-3,6,9,12-tetraoxatetradecyl)carbamate] | 50 to 500

Same assay, conditions: treated for 18 hours, ratio of HMG-CoA reductase to GAPDH, read-out: DC50

SMILES | DC50 [nM]
Cc1ncsc1-c1ccc(CNC(=O)[C@@H]2C[C@@H](O)CN2C(=O)[C@@H](NC(=O)COCCOCCOCCOCCOCCNC(=O)O[C@H]2C[C@@H](C)C=C3C=C[C@H](C)[C@H](CC[C@@H]4C[C@@H](O[Si](C)(C)C(C)(C)C)CC(=O)O4)[C@H]32)C(C)(C)C)cc1 [Compound 22, (1S,3R,7S,8S,8aR)-8-(2-((2R,4R)-4-((tert-butyldimethylsilyl)oxy)-6-oxotetrahydro-2H-pyran-2-yl)ethyl)-3,7-dimethyl-1,2,3,7,8,8a-hexahydronaphthalen-1-yl ((S)-19-((2S,4R)-4-hydroxy-2-((4-(4-methylthiazol-5-yl)benzyl)carbamoyl)pyrrolidine-1-carbonyl)-20,20-dimethyl-17-oxo-3,6,9,12,15-pentaoxa-18-azahenicosyl)carbamate] | < 50
Cc1ncsc1-c1ccc(CNC(=O)[C@@H]2C[C@@H](O)CN2C(=O)[C@@H](NC(=O)C2(F)CC2)C(C)(C)C)c(OCCOCCNC(=O)O[C@H]2C[C@@H](C)C=C3C=C[C@H](C)[C@H](CC[C@@H]4C[C@@H](O)CC(=O)O4)[C@H]32)c1 [Compound 23, (1S,3R,7S,8S,8aR)-8-(2-((2R,4R)-4-hydroxy-6-oxotetrahydro-2H-pyran-2-yl)ethyl)-3,7-dimethyl-1,2,3,7,8,8a-hexahydronaphthalen-1-yl (2-(2-(2-(((2S,4R)-1-((S)-2-(1-fluorocyclopropane-1-carboxamido)-3,3-dimethylbutanoyl)-4-hydroxypyrrolidine-2-carboxamido)methyl)-5-(4-methylthiazol-5-yl)phenoxy)ethoxy)ethyl)carbamate] | < 50
Cc1ncsc1-c1ccc(CNC(=O)[C@@H]2C[C@@H](O)CN2C(=O)[C@@H](NC(=O)C2(F)CC2)C(C)(C)C)c(OCCOCCOCCNC(=O)O[C@H]2C[C@@H](C)C=C3C=C[C@H](C)[C@H](CC[C@@H]4C[C@@H](O)CC(=O)O4)[C@H]32)c1 [Compound 24, (1S,3R,7S,8S,8aR)-8-(2-((2R,4R)-4-hydroxy-6-oxotetrahydro-2H-pyran-2-yl)ethyl)-3,7-dimethyl-1,2,3,7,8,8a-hexahydronaphthalen-1-yl (2-(2-(2-(2-(((2S,4R)-1-((S)-2-(1-fluorocyclopropane-1-carboxamido)-3,3-dimethylbutanoyl)-4-hydroxypyrrolidine-2-carboxamido)methyl)-5-(4-methylthiazol-5-yl)phenoxy)ethoxy)ethoxy)ethyl)carbamate] | < 50
Cc1ncsc1-c1ccc(CNC(=O)[C@@H]2C[C@@H](O)CN2C(=O)[C@@H](NC(=O)C2(F)CC2)C(C)(C)C)c(OCCOCCOCCOCCNC(=O)O[C@H]2C[C@@H](C)C=C3C=C[C@H](C)[C@H](CC[C@@H]4C[C@@H](O)CC(=O)O4)[C@H]32)c1 [Compound 25, (1S,3R,7S,8S,8aR)-8-(2-((2R,4R)-4-hydroxy-6-oxotetrahydro-2H-pyran-2-yl)ethyl)-3,7-dimethyl-1,2,3,7,8,8a-hexahydronaphthalen-1-yl (2-(2-(2-(2-(2-(((2S,4R)-1-((S)-2-(1-fluorocyclopropane-1-carboxamido)-3,3-dimethylbutanoyl)-4-hydroxypyrrolidine-2-carboxamido)methyl)-5-(4-methylthiazol-5-yl)phenoxy)ethoxy)ethoxy)ethoxy)ethyl)carbamate] | < 50
Cc1ncsc1-c1ccc(CNC(=O)[C@@H]2C[C@@H](O)CN2C(=O)[C@@H](NC(=O)C2(F)CC2)C(C)(C)C)c(OCCOCCOCCOCCOCCNC(=O)O[C@H]2C[C@@H](C)C=C3C=C[C@H](C)[C@H](CC[C@@H]4C[C@@H](O)CC(=O)O4)[C@H]32)c1 [Compound 26, (1S,3R,7S,8S,8aR)-8-(2-((2R,4R)-4-hydroxy-6-oxotetrahydro-2H-pyran-2-yl)ethyl)-3,7-dimethyl-1,2,3,7,8,8a-hexahydronaphthalen-1-yl (14-(2-(((2S,4R)-1-((S)-2-(1-fluorocyclopropane-1-carboxamido)-3,3-dimethylbutanoyl)-4-hydroxypyrrolidine-2-carboxamido)methyl)-5-(4-methylthiazol-5-yl)phenoxy)-3,6,9,12-tetraoxatetradecyl)carbamate] | < 50
Cc1ncsc1-c1ccc(CNC(=O)[C@@H]2C[C@@H](O)CN2C(=O)[C@@H](NC(=O)C2(F)CC2)C(C)(C)C)c(OCCOCCNC(=O)O[C@H]2C[C@@H](C)C=C3C=C[C@H](C)[C@H](CC[C@@H]4C[C@@H](O[Si](C)(C)C(C)(C)C)CC(=O)O4)[C@H]32)c1 [Compound 27, (1S,3R,7S,8S,8aR)-8-(2-((2R,4R)-4-((tert-butyldimethylsilyl)oxy)-6-oxotetrahydro-2H-pyran-2-yl)ethyl)-3,7-dimethyl-1,2,3,7,8,8a-hexahydronaphthalen-1-yl (2-(2-(2-(((2S,4R)-1-((S)-2-(1-fluorocyclopropane-1-carboxamido)-3,3-dimethylbutanoyl)-4-hydroxypyrrolidine-2-carboxamido)methyl)-5-(4-methylthiazol-5-yl)phenoxy)ethoxy)ethyl)carbamate] | < 50
CN[C@@H](C)C(=O)N[C@H](C(=O)N1CCC[C@H]1c1nc(C(=O)c2cccc(OCCOCCOCCNC(=O)O[C@H]3C[C@@H](C)C=C4C=C[C@H](C)[C@H](CC[C@@H]5C[C@@H](O)CC(=O)O5)[C@H]43)c2)cs1)C1CCCCC1 [Compound 31, (1S,3R,7S,8S,8aR)-8-(2-((2R,4R)-4-hydroxy-6-oxotetrahydro-2H-pyran-2-yl)ethyl)-3,7-dimethyl-1,2,3,7,8,8a-hexahydronaphthalen-1-yl (2-(2-(2-(3-(2-((S)-1-((S)-2-cyclohexyl-2-((S)-2-(methylamino)propanamido)acetyl)pyrrolidin-2-yl)thiazole-4-carbonyl)phenoxy)ethoxy)ethoxy)ethyl)carbamate] | < 50

Source: patent US12479840B2, “HMG-CoA reductase degradation inducing compound” (Uppthera, priority 2020, dated 2025)
